# Assays:
# MDSCs = assay: morphology of ex vivo MDSC cultures, phase contrast micrographs (FIG. 2a); assay type: cell-based, mouse; conditions: MDSCs treated with oleuropein
# Description: (§1) Immunosuppressive myeloid cell subsets resembling tumor-infiltrating subsets (g-MDSCs, m-MDSCs and TAMs) were differentiated from mouse bone marrow following published procedures using conditioning medium produced by LLC tumor cells stably expressing GMCSF and MCSF cells. g- and m-MDSCs were purified using the myeloid-derived suppressor cell isolation kit (Miltenyi Biotec, Bergisch, Germany) according to manufacturer's recommendations. MDSCs and TAMs were seeded with 500 nM BML-275 or 50 μM oleuropein and incubated for seven days.
# MDSC subsets = assay: abundance of MDSC subsets in vivo; conditions: LXR agonist
# m-MDSC = assay: quantitative proteomics and Ingenuity Pathway Analysis of m-MDSC; assay type: cell-based, mouse
# Description: as §1
# (§2) A unique proteomic experiment was carried out with five biological replicates per sample (m-MDSC, g-MDSC and TAM). Cells were homogenized in a lysis buffer containing 7 M urea, 2 M thiourea 50 mM DTT. The homogenates were spun down at 14000 g for 1 h at 15 °C. Before proteomic analysis, protein extracts were diluted with Laemmli sample buffer in 100 μL and loaded into a 0.75 mm thick polyacrylamide gel with a 4% stacking gel casted over a 12.5% resolving gel. The run was stopped as soon as the front entered 3 mm into the resolving gel so that the whole proteome became concentrated in the stacking/resolving gel interface. Bands were stained with Coomassie Brilliant Blue, excised from the gel and protein enzymatic cleavage was carried out with trypsin (Promega; 1:20, w/w) at 37 °C for 16 h as previously described. Purification and concentration of peptides was performed using C18 Zip Tip Solid Phase Extraction (Millipore).
# (§3) Peptide mixtures were separated by reverse phase chromatography using an UltiMate 3000 UHLPC System (Thermo Scientific) fitted with an Aurora packed emitter column (lonopticks, 25 cm×75 μm ID, 1.6 μm C18). Samples were first loaded for desalting and concentration into an Acclaim PepMap column (ThermoFisher, 0.5 cm×300 μm ID, 5 μm C18) packed with the same chemistry as the separating column. Mobile phases were 100% water 0.1% formic acid (FA) (buffer A) and 100% Acetonitrile 0.1% FA (buffer B). Column gradient was developed in a 120 min two step gradient from 5% B to 20% B in 90 min and 20% B to 32% B in 30 min. Column was equilibrated in 95% B for 10 min and 5% B for 20 min. During the whole process, the precolumn was in line with the column and the flow maintained all along the gradient at 300 nl/min. The column temperature was maintained at 40 °C using an integrated column oven (PRSO-V2, Sonation, Biberach, Germany) and interfaced online with the Orbitrap Exploris 480 MS. Spray voltage were set to 2 kV, funnel RF level at 40, and heated capillary temperature at 300 °C. For DDA experiments full MS resolutions were set to […] at m/z 200 and full MS AGC target was set to Standard with an IT mode Auto. Mass range was set to 375-1500. AGC target value for fragment spectra was set to Standard with a resolution of 15,000 and 3 seconds for cycle time. The intensity threshold was kept at 8E3. Isolation width was set at 1.4 m/z. Normalized collision energy was set at 30%. All data were acquired in centroid mode using positive polarity and peptide match was set to off, and isotope exclusion was on.
# (§4) Raw files were processed with MaxQuant v1.6.17.0 using the integrated Andromeda Search engine. All data were searched against a target/decoy version of the mouse Uniprot Reference Proteome with March 2021 release. First search peptide tolerance was set to 20 ppm, main search peptide tolerance was set to 4.5 ppm. Fragment mass tolerance was set to 20 ppm. Trypsin was specified as enzyme, […] carbamidomethylation of cysteine was specified as fixed modification and peptide N-terminal acetylation, oxidation of methionine, deamidation of asparagine and glutamine and pyro-glutamate formation from glutamine and glutamate were considered variable modifications with a total of two variable modifications per peptide. […]
# TAMCs = assay: apoptotic effect on myeloid cell populations; assay type: cell-based
# g-MDSC = assay: quantitative proteomics and Ingenuity Pathway Analysis of g-MDSC; assay type: cell-based, mouse
# Description: as §1, §2, §3, §4
smiles,measurement,setting,value
C/C=C1/[C@H](O[C@@H]2O[C@H](CO)[C@@H](O)[C@H](O)[C@H]2O)OC=C(C(=O)OC)[C@H]1CC(=O)OCCc1ccc(O)c(O)c1 [oleuropein],morphology,MDSCs,acquired a dendritic cell-like morphology
same,abundance of MDSC subsets and of immunosuppressive TME,MDSC subsets,reduced the abundance of MDSC subsets in vivo as well as of immunosuppressive TME
same,BAG2 signalling,"m-MDSC; IPA, m-MDSC",activated
same,EIF2 signalling,"m-MDSC; IPA, m-MDSC",activated
same,FAT10 signalling,"m-MDSC; IPA, m-MDSC",down-modulated
same,NRF2-mediated oxidative stress response,"m-MDSC; IPA, m-MDSC",downregulated
same,granzyme A signalling,"m-MDSC; IPA, m-MDSC",activated
same,production of proinflammatory cytokines,"m-MDSC; IPA, m-MDSC",down-modulated
same,sirtuin signalling,"m-MDSC; IPA, m-MDSC",activated
same,upstream regulator PTEN,"m-MDSC; IPA, m-MDSC",increase
same,upstream regulator methylprednisolone,"m-MDSC; IPA, m-MDSC",decrease
same,effect over m-MDSC intracellular regulatory pathways,m-MDSC; m-MDSC,potent effect over m-MDSC intracellular regulatory pathways
same,proteins differentially regulated,"m-MDSC; m-MDSC treated with oleuropein, data not shown",912 proteins
same,apoptotic effect,TAMCs,does not provide any apoptotic effect
same,AMPK signaling,"g-MDSC; IPA, g-MDSC",upregulation
same,EIF2 signalling,"g-MDSC; IPA, g-MDSC",downmodulated
same,NET signaling,"g-MDSC; IPA, g-MDSC",upregulation
same,estrogen receptor signalling,"g-MDSC; IPA, g-MDSC",downmodulated
same,fatty acid beta-oxidation,"g-MDSC; IPA, g-MDSC",activated
same,fmIP signaling,"g-MDSC; IPA, g-MDSC",upregulation
same,granzyme A signalling,"g-MDSC; IPA, g-MDSC",downmodulated
same,mTOR signaling,"g-MDSC; IPA, g-MDSC",upregulation
same,phospholipids,"g-MDSC; IPA, g-MDSC",decrease
same,upstream regulator E2f3,"g-MDSC; IPA, g-MDSC",decrease
same,upstream regulator Eif6,"g-MDSC; IPA, g-MDSC",increase
same,upstream regulator Stat4,"g-MDSC; IPA, g-MDSC",inhibited
same,upstream regulator Tbk1,"g-MDSC; IPA, g-MDSC",inhibited
same,cellular programming / proteome of g-MDSC,g-MDSC; g-MDSC treated with oleuropein,acquiring an entirely different proteome
same,differentiation of myeloid cells to g-MDSC,g-MDSC; g-MDSC treated with oleuropein,prevented

# Source: patent US20260364101A1, “OLEUROPEIN IN THE MANAGEMENT OF CANCER” (FUNDACIÓN MIGUEL SERVET, priority 2023, published 2026)
